Experimental data as given in patent US11325889B2, “Substituted 3-((3-aminophenyl)amino)piperidine-2,6-dione compounds, compositions thereof, and methods of treatment therewith” (Celgene Corporation, priority 2018, dated 2022).
Where two headings read alike, the source gives them in different places.

Biological target: T1, AR protein in VCaP cells (Homo sapiens, UniProt P10275)
T1 construct: endogenous in cells; host or cells: VCaP cells
T1 sequence (P10275 1-920): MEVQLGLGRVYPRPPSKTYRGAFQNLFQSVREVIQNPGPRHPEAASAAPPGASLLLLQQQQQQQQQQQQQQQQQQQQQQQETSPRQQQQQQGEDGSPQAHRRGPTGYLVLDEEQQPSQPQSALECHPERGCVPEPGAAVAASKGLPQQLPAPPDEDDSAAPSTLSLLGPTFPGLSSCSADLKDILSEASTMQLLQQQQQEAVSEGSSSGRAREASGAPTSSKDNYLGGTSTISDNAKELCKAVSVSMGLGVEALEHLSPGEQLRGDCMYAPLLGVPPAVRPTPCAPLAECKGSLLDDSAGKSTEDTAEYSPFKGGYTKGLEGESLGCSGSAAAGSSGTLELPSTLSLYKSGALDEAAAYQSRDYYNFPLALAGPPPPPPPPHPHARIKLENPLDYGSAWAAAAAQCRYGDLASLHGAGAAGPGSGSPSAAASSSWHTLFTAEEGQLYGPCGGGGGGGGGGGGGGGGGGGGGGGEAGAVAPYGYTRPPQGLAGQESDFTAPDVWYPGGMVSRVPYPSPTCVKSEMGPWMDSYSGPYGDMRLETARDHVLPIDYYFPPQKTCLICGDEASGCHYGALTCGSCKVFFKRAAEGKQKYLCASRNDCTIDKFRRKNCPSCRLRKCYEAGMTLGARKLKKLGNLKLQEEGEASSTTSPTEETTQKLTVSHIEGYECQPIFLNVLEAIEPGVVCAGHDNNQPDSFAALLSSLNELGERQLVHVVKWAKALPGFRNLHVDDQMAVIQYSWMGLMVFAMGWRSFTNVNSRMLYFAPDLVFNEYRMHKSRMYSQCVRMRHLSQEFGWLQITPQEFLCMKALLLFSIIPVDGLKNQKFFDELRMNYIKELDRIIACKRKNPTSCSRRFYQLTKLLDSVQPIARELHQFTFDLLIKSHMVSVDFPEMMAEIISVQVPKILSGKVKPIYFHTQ
Assay: VCAP AR Degradation Assay (AR ELISA, 24 h)
Assay type: cell-based
Conditions: for Y (lowest measured AR level normalized to DMSO control): AR degradation efficiency; for DC50: concentration of compound when AR level = 50% of DMSO control
Outline: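 VCaP cells in DMEM with 8% FBS exposed for 24 h at 37° C to a 10-point, 1:3 series (final top concentration […]; 0.1% DMSO control). Lysate AR measured by sandwich ELISA and normalized to DMSO as percent of control. DC50, EC50 and lowest AR level (Y) from four-parameter logistic fit.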

Structure (SMILES)	Y (lowest measured AR level normalized to DMSO control)	DC50 (read-out: DC50) [nM]	DC50 [nM]
CCc1cc(N2C(=S)N(c3ccc(C#N)c(C(F)(F)F)c3)C(=O)C23CCC3)ccc1OCCC1CCN([C@@H](C)C(=O)Nc2cccc(NC3CCC(=O)NC3=O)c2)CC1 (stereo partly drawn) [Cmpd 59, (2S)-2-(4-(2-(4-(7-(4-cyano-3-(trifluoromethyl)phenyl)-8-oxo-6-thioxo-5,7-diazaspiro[3.4]octan-5-yl)-2-ethylphenoxy)ethyl)piperidin-1-yl)-N-(3-(2,6-dioxopiperidin-3-ylamino)phenyl)propanamide]	** (25%<Y<=35%)	100 to 500	–
CCc1cc(N2C(=S)N(c3cnc(C#N)c(C(F)(F)F)c3)C(=O)C2(C)C)ccc1OCCC1CCN(CC(=O)Nc2cc(NC3CCC(=O)NC3=O)ccc2Cl)CC1 (stereo not drawn) [Cmpd 14, N-(2-chloro-5-(2,6-dioxopiperidin-3-ylamino)phenyl)-2-(4-(2-(4-(3-(6-cyano-5-(trifluoromethyl)pyridin-3-yl)-5,5-dimethyl-4-oxo-2-thioxoimidazolidin-1-yl)-2-ethylphenoxy)ethyl)piperidin-1-yl)acetamide]	* (0<Y<=25%)	100 to 500	–
CC1(C)C(=O)N(c2ccc(C#N)c(C(F)(F)F)c2)C(=S)N1c1ccc(OCC2CCN(CC(=O)Nc3cccc(NC4CCC(=O)NC4=O)c3)CC2)c(F)c1 (stereo not drawn) [Cmpd 2, 2-(4-((4-(3-(4-cyano-3-(trifluoromethyl)phenyl)-5,5-dimethyl-4-oxo-2-thioxoimidazolidin-1-yl)-2-fluorophenoxy)methyl)piperidin-1-yl)-N-(3-(2,6-dioxopiperidin-3-ylamino)phenyl)acetamide]	** (25%<Y<=35%)	100 to 500	–
CCc1cc(N2C(=S)N(c3cnc(C#N)c(C(F)(F)F)c3)C(=O)C23CCC3)ccc1OCCC1C[C@H]2CC[C@@H](C1)N2CC(=O)Nc1cc(Cl)cc(NC2CCC(=O)NC2=O)c1 (stereo partly drawn) [Cmpd 69, N-(3-chloro-5-(2,6-dioxopiperidin-3-ylamino)phenyl)-2-((1R,5S)-3-(2-(4-(7-(6-cyano-5-(trifluoromethyl)pyridin-3-yl)-8-oxo-6-thioxo-5,7-diazaspiro[3.4]octan-5-yl)-2-ethylphenoxy)ethyl)-8-azabicyclo[3.2.1]octan-8-yl)acetamide]	** (25%<Y<=35%)	–	100 to 500
CCc1cc(N2C(=S)N(c3cnc(C#N)c(C(F)(F)F)c3)C(=O)C23CCC3)ccc1OCCC1CCN(CC(=O)Nc2cccc(NC3CCC(=O)NC3=O)c2)C(C)(C)C1 (single isomer, unassigned) [Cmpd 54]	* (0<Y<=25%)	< 100	–
CCc1cc(N2C(=S)N(c3cnc(C#N)c(C(F)(F)F)c3)C(=O)C2(C)C)ccc1OCCC1CCN(CC(=O)Nc2cc(NC3CCC(=O)NC3=O)ccc2F)CC1 (stereo not drawn) [Cmpd 15, 2-(4-(2-(4-(3-(6-cyano-5-(trifluoromethyl)pyridin-3-yl)-5,5-dimethyl-4-oxo-2-thioxoimidazolidin-1-yl)-2-ethylphenoxy)ethyl)piperidin-1-yl)-N-(5-(2,6-dioxopiperidin-3-ylamino)-2-fluorophenyl)acetamide]	* (0<Y<=25%)	< 100	–
CCc1cc(N2C(=S)N(c3cnc(C#N)c(C(F)(F)F)c3)C(=O)C2(C)C)ccc1OCC[C@@H]1C[C@H]2CC[C@@H](C1)N2CC(=O)Nc1cc(Cl)cc(NC2CCC(=O)NC2=O)c1 (stereo partly drawn) [Cmpd 62, N-(3-chloro-5-(2,6-dioxopiperidin-3-ylamino)phenyl)-2-((1R,3s,5S)-3-(2-(4-(3-(6-cyano-5-(trifluoromethyl)pyridin-3-yl)-5,5-dimethyl-4-oxo-2-thioxoimidazolidin-1-yl)-2-ethylphenoxy)ethyl)-8-azabicyclo[3.2.1]octan-8-yl)acetamide]	* (0<Y<=25%)	–	< 100
CCc1cc(N2C(=S)N(c3ccc(C#N)c(C(F)(F)F)c3)C(=O)C2(C)C)ccc1OCCC1CCN([C@H](C)C(=O)Nc2cc(Cl)cc(NC3CCC(=O)NC3=O)c2)CC1 (stereo partly drawn) [Cmpd 21, (2R)-N-(3-chloro-5-(2,6-dioxopiperidin-3-ylamino)phenyl)-2-(4-(2-(4-(3-(4-cyano-3-(trifluoromethyl)phenyl)-5,5-dimethyl-4-oxo-2-thioxoimidazolidin-1-yl)-2-ethylphenoxy)ethyl)piperidin-1-yl)propanamide]	* (0<Y<=25%)	100 to 500	–
CCc1cc(N2C(=S)N(c3cnc(C#N)c(C(F)(F)F)c3)C(=O)C2(C)C)ccc1OCCC1CCN([C@@H](C)C(=O)Nc2cc(C#N)cc(NC3CCC(=O)NC3=O)c2)CC1 (stereo partly drawn) [Cmpd 37, (2S)-N-(3-cyano-5-(2,6-dioxopiperidin-3-ylamino)phenyl)-2-(4-(2-(4-(3-(6-cyano-5-(trifluoromethyl)pyridin-3-yl)-5,5-dimethyl-4-oxo-2-thioxoimidazolidin-1-yl)-2-ethylphenoxy)ethyl)piperidin-1-yl)propanamide]	* (0<Y<=25%)	< 100	–
CC(F)(F)c1cc(N2C(=S)N(c3ccc(C#N)c(C(F)(F)F)c3)C(=O)C2(C)C)ccc1OCCC1CCN(CC(=O)Nc2cc(Cl)cc(NC3CCC(=O)NC3=O)c2)CC1 (stereo not drawn) [Cmpd 30, N-(3-chloro-5-(2,6-dioxopiperidin-3-ylamino)phenyl)-2-(4-(2-(4-(3-(4-cyano-3-(trifluoromethyl)phenyl)-5,5-dimethyl-4-oxo-2-thioxoimidazolidin-1-yl)-2-(1,1-difluoroethyl)phenoxy)ethyl)piperidin-1-yl)acetamide]	* (0<Y<=25%)	100 to 500	–
CC1(C)C(=O)N(c2ccc(C#N)c(C(F)(F)F)c2)C(=S)N1c1ccc(OCCC2CCN(CC(=O)Nc3cc(Cl)cc(NC4CCC(=O)NC4=O)c3)CC2)c(Cl)c1 (stereo not drawn) [Cmpd 8, 2-(4-(2-(2-chloro-4-(3-(4-cyano-3-(trifluoromethyl)phenyl)-5,5-dimethyl-4-oxo-2-thioxoimidazolidin-1-yl)phenoxy)ethyl)piperidin-1-yl)-N-(3-chloro-5-(2,6-dioxopiperidin-3-ylamino)phenyl)acetamide]	* (0<Y<=25%)	100 to 500	–
CCc1cc(N2C(=S)N(c3cnc(C#N)c(C(F)(F)F)c3)C(=O)C2(C)C)ccc1OC1CCN(CC(=O)Nc2cc(Cl)cc(NC3CCC(=O)NC3=O)c2)CC1 (stereo not drawn) [Cmpd 51, N-(3-chloro-5-(2,6-dioxopiperidin-3-ylamino)phenyl)-2-(4-(4-(3-(6-cyano-5-(trifluoromethyl)pyridin-3-yl)-5,5-dimethyl-4-oxo-2-thioxoimidazolidin-1-yl)-2-ethylphenoxy)piperidin-1-yl)acetamide]	* (0<Y<=25%)	< 100	–
CCc1cc(N2C(=S)N(c3cnc(C#N)c(C(F)(F)F)c3)C(=O)C2(C)C)ccc1OCCC1(F)CCN(CC(=O)Nc2cccc(NC3CCC(=O)NC3=O)c2)CC1 (stereo not drawn) [Cmpd 89, 2-(4-(2-(4-(3-(6-cyano-5-(trifluoromethyl)pyridin-3-yl)-5,5-dimethyl-4-oxo-2-thioxoimidazolidin-1-yl)-2-ethylphenoxy)ethyl)-4-fluoropiperidin-1-yl)-N-(3-(2,6-dioxopiperidin-3-ylamino)phenyl)acetamide]	* (0<Y<=25%)	< 100	–
CCc1cc(N2C(=S)N(c3ccc(C#N)c(C(F)(F)F)c3)C(=O)C2(C)C)ccc1OCC1CCN(CC(=O)Nc2cccc(NC3CCC(=O)NC3=O)c2)CC1 (stereo not drawn) [Cmpd 11, 2-(4-((4-(3-(4-cyano-3-(trifluoromethyl)phenyl)-5,5-dimethyl-4-oxo-2-thioxoimidazolidin-1-yl)-2-ethylphenoxy)methyl)piperidin-1-yl)-N-(3-(2,6-dioxopiperidin-3-ylamino)phenyl)acetamide]	** (25%<Y<=35%)	100 to 500	–
CCc1cc(N2C(=S)N(c3cnc(C#N)c(C(F)(F)F)c3)C(=O)C23CCC3)ccc1OCCC1CCN([C@@H](C)C(=O)Nc2cc(NC3CCC(=O)NC3=O)ccc2F)CC1 (stereo partly drawn) [Cmpd 85, (2S)-2-(4-(2-(4-(7-(6-cyano-5-(trifluoromethyl)pyridin-3-yl)-8-oxo-6-thioxo-5,7-diazaspiro[3.4]octan-5-yl)-2-ethylphenoxy)ethyl)piperidin-1-yl)-N-(5-(2,6-dioxopiperidin-3-ylamino)-2-fluorophenyl)propanamide]	* (0<Y<=25%)	100 to 500	–
